Measurements from patent publication US20260193188A1, “CRYSTALLINE POLYMORPH FORMS OF A TRPV1 ANTAGONIST AND FORMULATIONS THEREOF” (Bausch + Lomb Ireland Limited, priority 2022, published 2026).
≈ marks a conversion by molar mass, not a printed value.

Assays:
[1] = Solid form stability (humidity exposure, compression, grinding, granulation); format: physicochemical
Hygroscopicity by DVS = format: physicochemical
human TRPV1 = target: T1, human TRPV1 (Homo sapiens, UniProt Q8NER1); assay: FLIPR calcium assay to detect calcium influx in CHO-huTrpV1 cells (antagonism of NADA response); format: cell-based; conditions: stimulated with 2.5 μM NADA (EC80), FLIPR calcium 6, read-out: IC50, antagonist effect against human TRPV1
T1 construct: expressed in transfected cells; host or cells: CHO (Chinese Hamster Ovary) cells, geneticin-selected
Procedure: Chinese Hamster Ovary (CHO) cells transfected to express human TrpV1 receptor (which are herein referred to as CHO-huTrpV1 cells), were grown in F-12 Ham's Nutrient Mixture media (HyClone SH30026.01) supplemented with 10% Fetal Bovine Serum (Invitrogen #26140-079), 1% Antibiotic/antimycotic (Invitrogen #15240-062) and 500 μg/mL geneticin (ThermoFisher scientific #1031035). Cells were grown in T-75 flasks at 37° C. incubater with 5% CO2. The cells were passaged twice a week at a ratio of 1:10 to 1:20 to maintain steady growth. For experimentation, cells were harvarsted at approximately 80% confluency and plated onto 384 well black cell culture plates (cat #781091, Greinier Bio-One Inc.) at 15,000 cells per well in 20 μl media and grown overnight.
The loading dye was prepared following instruction of Calcium 6 assay kit ([…], #R8190): 10 ml buffer from bottle B was added to 1 vial of bottle A (adapted to room temperature from −20° C.) and mixed well, then 2.5 mM of fresh prepared probenecid was added and mixed well. 20 μl/well of loading dye was added on top of the cells, and incubated at 37° C. for 1 hour 30 min.
Assay buffer preparation: 1×HBSS, 2 mM HEPES, 0.1% BSA plus 2.5 mM freshly prepared probenecid (Invitrogen, #P36400). 25 μl/well assay buffer in 384 well clear plate (cat #782281, Greiner Bio-one) was dispensed with buffer distributor (Multidrop ComB1 from Thermo Scientific). The compounds were in 384 Echo plate (cat #LPL0200, Labcyte) and the starting concentration of compound was 10 mM, then 1 to 3 serial dilution in 100% DMSO, 8 ul/well). 125 nl compounds was transferred to the 384 well plate containing 25 μl/well buffer with Echo® 555 Liquid Handler (Labcyte), such that the compound concentration was 5 fold of final concentration. The plate was shook slowly at 40 rpm/min for 10 min to mix. […]
After compounds were added to the cell plate with loading dye, within 10-15 minutes, cell plate and plate containing NADA was placed into the FLIPR (Fluorescent Imaging Plate Reader) instrument (Tetra System, Molecular device). […]

[2] = Hydrate formation on equilibration in aqueous fluid; format: physicochemical; conditions: equilibrated at 4° C. in water, methanol/water (33:67, 42:58), after 2 weeks and 4 weeks
Solubility in solvents = format: physicochemical; conditions: organic solvent or mixture
Procedure: Compound I is poorly soluble (between 1 and 25 mg/ml) in acetonitrile, dicholormethane, methyl-tert-butyl ether, nitromethane. In toluene and heptane, compound I is sparingly soluble (<1 mg/ml).

T1 sequence (Q8NER1 whole entry): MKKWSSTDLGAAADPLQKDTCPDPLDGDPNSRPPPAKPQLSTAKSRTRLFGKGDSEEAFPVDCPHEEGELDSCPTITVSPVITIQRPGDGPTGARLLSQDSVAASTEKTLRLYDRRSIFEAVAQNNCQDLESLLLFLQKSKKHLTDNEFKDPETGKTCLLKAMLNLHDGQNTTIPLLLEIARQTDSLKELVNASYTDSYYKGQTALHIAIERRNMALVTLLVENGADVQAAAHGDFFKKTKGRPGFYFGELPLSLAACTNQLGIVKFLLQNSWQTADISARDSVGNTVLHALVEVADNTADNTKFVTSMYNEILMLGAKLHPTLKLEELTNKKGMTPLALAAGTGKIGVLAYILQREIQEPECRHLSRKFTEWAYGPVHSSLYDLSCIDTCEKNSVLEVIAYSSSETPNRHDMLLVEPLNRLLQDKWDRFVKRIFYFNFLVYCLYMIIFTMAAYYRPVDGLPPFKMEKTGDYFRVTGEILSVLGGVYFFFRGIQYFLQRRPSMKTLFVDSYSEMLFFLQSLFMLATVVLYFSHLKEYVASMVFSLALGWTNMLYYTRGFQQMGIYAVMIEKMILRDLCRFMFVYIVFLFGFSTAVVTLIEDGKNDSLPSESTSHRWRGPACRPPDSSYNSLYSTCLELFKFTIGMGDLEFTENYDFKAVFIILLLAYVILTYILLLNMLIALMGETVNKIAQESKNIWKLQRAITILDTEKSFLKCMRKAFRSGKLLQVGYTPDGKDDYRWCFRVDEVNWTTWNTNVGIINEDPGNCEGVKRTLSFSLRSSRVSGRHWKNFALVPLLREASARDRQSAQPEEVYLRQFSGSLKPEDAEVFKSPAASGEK

OC[C@@H](O)c1cc(F)c(CN[C@H]2C[C@H](Oc3ccc(F)c(C(F)(F)F)c3)C2)c2ccncc12 [Compound I Form A, (S)-1-(6-fluoro-5-((((1r,3S)-3-(4-fluoro-3-(trifluoromethyl)phenoxy)cyclobutyl)amino)methyl)isoquinolin-8-yl)ethane-1,2-diol]
Change after humidity exposure ([1]; 92% RH for 24 h): did not result in change
Form change after compression ([1]; compression, only minor peak broadening): no form change
Form change under grinding and granulation ([1]; dry grinding and wet granulation with water and ethanol (XRPD, FIG. 4)): did not show form change
Hygroscopicity by DVS (Hygroscopicity by DVS; DVS): slightly hygroscopic
Solid state change after DVS (Hygroscopicity by DVS; DVS up to 95% RH): no change in solid state
Water vapor absorbed (Hygroscopicity by DVS; DVS, at 95% RH): approximately 0.4%

OC[C@@H](O)c1cc(F)c(CN[C@H]2C[C@H](Oc3ccc(F)c(C(F)(F)F)c3)C2)c2ccncc12 (single isomer, unassigned)
IC50 (human TRPV1): 0.62 nM
Hydrate formation [2]: not observed to form a hydrate
solubility (Solubility in solvents; organic solvents and alcohol/water mixtures, acetone, 1,4-dioxane, ethanol, ethyl acetate, isopropyl acetate, methanol, 2-methyl-2-butanol, tetrahydrofuran, 1-propanol/water (98.5:1.5), 2-propanol/water (96:4), methanol/water (78:22)): > 25 mg/mL
solubility (Solubility in solvents; organic solvents, acetonitrile, dicholormethane, methyl-tert-butyl ether, nitromethane): 1 to 25 mg/mL (≈ 2.13 to 53.4 mM)
solubility (Solubility in solvents; organic solvents, toluene and heptane): < 1 mg/mL

OCC(O)c1cc(F)c(CN[C@H]2C[C@H](Oc3ccc(F)c(C(F)(F)F)c3)C2)c2ccncc12 (mixture of isomers) [Example 1 (mixture of isomers), 1-(6-fluoro-5-((((1r,3r)-3-(4-fluoro-3-(trifluoromethyl)phenoxy)cyclobutyl)amino)methyl)isoquinolin-8-yl)ethane-1,2-diol]
IC50 (human TRPV1): 10.4 nM

OC[C@H](O)c1cc(F)c(CN[C@H]2C[C@H](Oc3ccc(F)c(C(F)(F)F)c3)C2)c2ccncc12 [(R)-1-(6-fluoro-5-((((1r,3R)-3-(4-fluoro-3-(trifluoromethyl)phenoxy)cyclobutyl)amino)methyl)isoquinolin-8-yl)ethane-1,2-diol]
IC50 (human TRPV1): 6.3 nM
